Assay results as given in the supplement of paper PMC13380429.
± gives the standard deviation of the averaged measurements.

Experiments:
[1] = test system: A549-ACE2 infected with SARS-CoV-2; assay: morphology score (similarity to uninfected cells); higher = more like uninfected cells; settings: 24 h
Calu-3 [2] = assay: drug sensitivity score (DSS) for viability; higher = more toxic; extreme values may be limits of the assay; settings: 72 h
HepG2 [3] = assay: as above; settings: 72 h
U2OS [4] = assay: as above; settings: 72 h
Vero E6 [5] = assay: as above; settings: 72 h
Caco-2 [6] = assay: cell viability relative to DMSO; higher = less toxic; settings: 72 h
Calu-3 [7] = assay: as above; settings: 72 h
HepG2 [8] = assay: as above; settings: 72 h
U2OS [9] = assay: as above; settings: 72 h
Vero E6 [10] = assay: as above; settings: 72 h
Caco-2 [11] = assay: relative viability EC50 (midpoint between 100% and the lowest measured viability); higher = less toxic; settings: 72 h
Calu-3 [12] = assay: as above; settings: 72 h
HepG2 [13] = assay: as above; settings: 72 h
U2OS [14] = assay: as above; settings: 72 h
Vero E6 [15] = assay: as above; settings: 72 h
Caco-2 [16] = assay: drug sensitivity score (DSS) for viability; higher = more toxic; extreme values may be limits of the assay; settings: 72 h

| Compound | morphology score ([1]; 0.3 µM) | morphology score ([1]; 3 µM) | morphology score ([1]; 10 µM) | morphology score ([1]; 30 µM) | drug sensitivity score (Calu-3 [2]) | drug sensitivity score (HepG2 [3]) | drug sensitivity score (U2OS [4]) | drug sensitivity score (Vero E6 [5]) | cell viability (Caco-2 [6]; 1 nM) [%] | cell viability (Caco-2 [6]; 10 nM) [%] | cell viability (Caco-2 [6]; 100 nM) [%] | cell viability (Caco-2 [6]; 1000 nM) [%] | cell viability (Caco-2 [6]; 10000 nM) [%] | cell viability (Calu-3 [7]; 1 nM) [%] | cell viability (Calu-3 [7]; 10 nM) [%] | cell viability (Calu-3 [7]; 100 nM) [%] | cell viability (Calu-3 [7]; 1000 nM) [%] | cell viability (Calu-3 [7]; 10000 nM) [%] | cell viability (HepG2 [8]; 1 nM) [%] | cell viability (HepG2 [8]; 10 nM) [%] | cell viability (HepG2 [8]; 100 nM) [%] | cell viability (HepG2 [8]; 1000 nM) [%] | cell viability (HepG2 [8]; 10000 nM) [%] | cell viability (U2OS [9]; 1 nM) [%] | cell viability (U2OS [9]; 10 nM) [%] | cell viability (U2OS [9]; 100 nM) [%] | cell viability (U2OS [9]; 1000 nM) [%] | cell viability (U2OS [9]; 10000 nM) [%] | cell viability (Vero E6 [10]; 1 nM) [%] | cell viability (Vero E6 [10]; 10 nM) [%] | cell viability (Vero E6 [10]; 100 nM) [%] | cell viability (Vero E6 [10]; 1000 nM) [%] | cell viability (Vero E6 [10]; 10000 nM) [%] | relative viability EC50 (Caco-2 [11]) [µM] | relative viability EC50 (Calu-3 [12]) [µM] | relative viability EC50 (HepG2 [13]) [µM] | relative viability EC50 (U2OS [14]) [µM] | relative viability EC50 (Vero E6 [15]) [µM] | drug sensitivity score (Caco-2 [16]) |
| --- | --- | --- | --- | --- | --- | --- | --- | --- | --- | --- | --- | --- | --- | --- | --- | --- | --- | --- | --- | --- | --- | --- | --- | --- | --- | --- | --- | --- | --- | --- | --- | --- | --- | --- | --- | --- | --- | --- | --- |
| C[C@@H]1C[C@@H]([C@H](O)CC2CC(=O)NC(=O)C2)C(=O)[C@@H](C)C1 [cycloheximide] | 0.91 | 0.69 | 0.52 | 0.48 | 7.3 | 14.3 | 13.8 | 13.8 | – | – | – | – | – | – | – | – | – | – | – | – | – | – | – | – | – | – | – | – | – | – | – | – | – | – | – | – | – | – | – |
| CC[N+]1(C)CCCC(OC(=O)C(O)(c2ccccc2)c2ccccc2)C1 (stereo not drawn) [pipenzolate] | – | – | – | – | 0 | 0 | 0 | 0 | 102 | 100 | 103 | 95.2 | 95.7 | 96.3 | 95.5 | 93.3 | 94.6 | 91.8 | 89.3 | 102 | 97.7 | 99.8 | 94.3 | 100 | 95 | 95.4 | 93.3 | 97.4 | 105 | 101 | 105 | 103 | 96.7 | > 10 | > 10 | > 10 | > 10 | > 10 | 0 |
| Clc1ccc(CCCOCCCN2CCCCC2)cc1 [pitolisant] | – | – | – | – | 0 | 0.3 | 0 | 0 | 99.4 | 93.6 | 96.4 | 89.7 | 89.8 | 90.7 | 106 | 92.3 | 90.6 | 94.8 | 93.8 | 91.4 | 96 | 94.6 | 81.8 | 104 | 99.7 | 100 | 97.7 | 96.8 | 95 | 94.9 | 95.6 | 93.2 | 89.4 | > 10 | > 10 | > 10 | > 10 | > 10 | 0 |
| C[C@]12C=CC(=O)C=C1CC[C@@H]1[C@@H]2[C@@H](O)C[C@@]2(C)[C@H]1CC[C@]2(O)C(=O)COC(=O)CCC(=O)O [prednisolone-hemisuccinate] | – | – | – | – | 0 | 0 | 0 | 0 | 94.7 | 103 | 93.3 | 91.3 | 79.8 | 98.6 | 102 | 97.2 | 102 | 88.9 | 112 | 92.5 | 91.7 | 98.5 | 108 | 97.5 | 103 | 96 | 100 | 93.6 | 99.3 | 99.9 | 95.8 | 90 | 98.6 | > 10 | > 10 | > 10 | > 10 | > 10 | 1.1 |
| Oc1cc(O)c2c(c1)O[C@H](c1ccc(O)c(O)c1)[C@H](O)[C@H]2c1c(O)cc(O)c2c1O[C@H](c1ccc(O)c(O)c1)[C@H](O)C2 [procyanidin-B-2] | – | – | – | – | 0 | 0 | 0 | 0 | 106 | 102 | 102 | 98.7 | 105 | 112 | 95.6 | 100 | 93.1 | 109 | 98.5 | 100 | 96.8 | 99.3 | 94.7 | 103 | 99.9 | 106 | 99.5 | 104 | 97 | 98.2 | 91.8 | 101 | 93.4 | > 10 | > 10 | > 10 | > 10 | > 10 | 0 |
| CC(C)NCC(O)COc1cccc2ccccc12 (stereo not drawn) [propranolol] | – | – | – | – | 0.467 ± 0.81 | 0 | 0.0333 ± 0.058 | 0 | 101 ± 2.7 | 96 ± 3.8 | 101 ± 3 | 95 ± 9.6 | 100 ± 4.5 | 95.3 ± 3.9 | 96.7 ± 2.8 | 99.4 ± 6 | 89.6 ± 5 | 92.9 ± 1.8 | 92.9 ± 6.3 | 101 ± 2.8 | 95.6 ± 7 | 102 ± 6 | 102 ± 1.6 | 96.1 ± 3.6 | 95.2 ± 2.7 | 97.2 ± 7.5 | 95.6 ± 2.3 | 96.5 ± 7.6 | 94.3 ± 3.7 | 98.95 ± 0.49 | 95.3 ± 4 | 95.1 ± 0.71 | 99.3 ± 3.2 | > 10 | > 10 | > 10 | > 10 | > 10 | 0 |
| c1ccc(COCCCc2c[nH]cn2)cc1 [proxyfan] | – | – | – | – | 0 | 0 | 0 | 0 | 96.4 | 92.9 | 93.5 | 91.6 | 95.6 | 101 | 101 | 98.4 | 103 | 105 | 97.9 | 108 | 97.7 | 103 | 107 | 99.6 | 97.8 | 102 | 97.5 | 101 | 96.9 | 95.8 | 95.9 | 99 | 93.3 | > 10 | > 10 | > 10 | > 10 | > 10 | 0 |
| NC[C@H]1O[C@H](O[C@H]2[C@H](O[C@@H]3O[C@H](CO)[C@@H](O)[C@H]3O)[C@@H](O)[C@H](N)C[C@@H]2N)[C@H](N)[C@@H](O)[C@@H]1O [ribostamycin-sulfate] | – | – | – | – | 0 | 0.05 ± 0.071 | 0 | 0 | 94.5 ± 5 | 97.1 ± 2.4 | 87.5 ± 12 | 93 ± 2 | 88.5 ± 9.1 | 93.8 ± 8.4 | 97.7 ± 13 | 90.5 ± 5 | 104 ± 9.5 | 89.6 ± 0.99 | 99.2 ± 0.85 | 106.8 ± 0.21 | 97 ± 5.2 | 102 ± 4.5 | 93.6 ± 8.2 | 96.8 ± 1.1 | 98.8 ± 2.2 | 96.3 ± 2.3 | 101 ± 4.4 | 98.5 ± 1.5 | 103 ± 8.4 | 94 ± 5.7 | 100 ± 4.7 | 97.2 ± 2.3 | 102 ± 2.2 | > 10 | > 10 | > 10 | > 10 | > 10 | 0.9 ± 1.3 |
| COc1ccc(NS(=O)(=O)c2ccc(/N=N/c3ccc(O)c(C(=O)O)c3)cc2)nn1 [salazodine] | – | – | – | – | 0 | 0 | 0 | 0 | 111 | 89.4 | 97.4 | 95.4 | 93.7 | 98 | 108 | 102 | 116 | 111 | 99.6 | 97.7 | 92.5 | 95.1 | 96.9 | 101 | 98 | 98.6 | 96.2 | 102 | 105 | 108 | 95.7 | 101 | 101 | > 10 | > 10 | > 10 | > 10 | > 10 | 0 |
| Nc1ncnc2c1ncn2[C@@H]1O[C@H](C[C@@H](N)CC[C@H](N)C(=O)O)[C@@H](O)[C@H]1O [sinefungin] | – | – | – | – | 0 | 0 | 0 | 0 | 86.7 | 95.5 | 91.4 | 108 | 106 | 104 | 104 | 100 | 94.8 | 93.5 | 115 | 96.2 | 113 | 89.9 | 97.1 | 96.6 | 98.1 | 97.7 | 101 | 96.2 | 112 | 94.3 | 102 | 104 | 99.5 | > 10 | > 10 | > 10 | > 10 | > 10 | 0 |
| O=C(O)[C@H](O)[C@@H](O)[C@H](O)[C@H](O)CO [sodium-gluconate] | – | – | – | – | 0 | 0 | 0 | 0 | 104 | 101 | 104 | 113 | 92.2 | 106 | 96.6 | 108 | 109 | 105 | 79.7 | 108 | 94.3 | 92.7 | 91 | 96.9 | 97 | 98.2 | 99.8 | 103 | 96.9 | 107 | 102 | 93.5 | 105 | > 10 | > 10 | > 10 | > 10 | > 10 | 0 |
| CC(C(=O)O)c1ccc(C(=O)c2cccs2)cc1 (stereo not drawn) [suprofen] | – | – | – | – | 1.6 | 1.1 | 0 | 0 | 105 | 98 | 101 | 98 | 90.8 | 97.9 | 103 | 89 | 86.6 | 89.8 | 102 | 93.2 | 92.9 | 86.8 | 85.3 | 101 | 93.5 | 97.4 | 97 | 103 | 97.7 | 97.9 | 95.4 | 102 | 98.7 | > 10 | > 10 | > 10 | > 10 | > 10 | 0 |
| O=C(CO)[C@@H](O)[C@@H](O)[C@H](O)CO [tagatose] | – | – | – | – | 0 | 0 | 0 | 0 | 98.5 | 94.4 | 103 | 106 | 99.3 | 98.4 | 99.6 | 99.7 | 97 | 102 | 101 | 91.6 | 97.6 | 94.9 | 106 | 89.1 | 95.3 | 92.7 | 102 | 107 | 93.7 | 94.5 | 92.1 | 85.3 | 110 | > 10 | > 10 | > 10 | > 10 | > 10 | 0 |
| C=CCNC1=C2C[C@@H](C)C[C@H](OC)[C@H](O)[C@@H](C)/C=C(\C)[C@H](OC(N)=O)[C@@H](OC)/C=C\C=C(/C)C(=O)NC(=CC1=O)C2=O [tanespimycin] | – | – | – | – | 13.5 | 33.3 | 21 | 9.8 | 93.6 | 98.8 | 101 | 71.8 | 29.2 | 108 | 105 | 83.3 | 40.2 | 38.2 | 113 | 80.2 | 1.9 | 1.3 | 2.2 | 101 | 102 | 73.2 | 4.8 | 1.8 | 108 | 100 | 104 | 51.4 | 26.5 | 1.18 | 0.161 | 0.0174 | 0.164 | 0.768 | 7.7 |
